Measured values published in the NIST ThermoML archive (doi:10.1021/je900193m).

Experiment: xn = mol fraction of the nth substance listed
Conditions: 101 kPa, Liquid, holographic inferometry, x1 = 0

Structure (SMILES)	binary diffusion coefficient (278.15 K)	binary diffusion coefficient (281.15 K)	binary diffusion coefficient (284.15 K)	binary diffusion coefficient (287.15 K)	binary diffusion coefficient (290.15 K)	binary diffusion coefficient (293.15 K)	binary diffusion coefficient (296.15 K)	binary diffusion coefficient (299.15 K)	binary diffusion coefficient (302.15 K)	binary diffusion coefficient (305.15 K)	binary diffusion coefficient (308.15 K)	binary diffusion coefficient (311.15 K)	binary diffusion coefficient (314.15 K)	binary diffusion coefficient (317.15 K)	binary diffusion coefficient (320.15 K)	binary diffusion coefficient (323.15 K)	binary diffusion coefficient (326.15 K)	binary diffusion coefficient (329.15 K)	binary diffusion coefficient (332.15 K)	binary diffusion coefficient (335.15 K)	other results
CCOC(=O)CCCCC(=O)OCC [diethyl hexanedioate] + CCCCCCC	1.93e-09 m2/s	1.96e-09 m2/s	1.99e-09 m2/s	2.02e-09 m2/s	2.06e-09 m2/s	2.1e-09 m2/s	2.15e-09 m2/s	2.2e-09 m2/s	2.25e-09 m2/s	2.31e-09 m2/s	2.37e-09 m2/s	2.43e-09 m2/s	2.49e-09 m2/s	2.56e-09 m2/s	2.62e-09 m2/s	2.7e-09 m2/s	2.78e-09 m2/s	2.85e-09 m2/s	2.92e-09 m2/s	3.02e-09 m2/s	binary diffusion coefficient (338.15 K): 3.11e-09 m2/s
COC(=O)OC [dimethyl carbonate] + CCCCCCC	4.93e-09 m2/s	4.97e-09 m2/s	5.01e-09 m2/s	5.07e-09 m2/s	5.13e-09 m2/s	5.19e-09 m2/s	5.25e-09 m2/s	5.33e-09 m2/s	5.39e-09 m2/s	5.48e-09 m2/s	5.55e-09 m2/s	5.63e-09 m2/s	5.71e-09 m2/s	5.8e-09 m2/s	5.9e-09 m2/s	5.99e-09 m2/s	6.09e-09 m2/s	6.2e-09 m2/s	6.29e-09 m2/s	6.41e-09 m2/s	binary diffusion coefficient (338.15 K): 6.52e-09 m2/s
CCOC(=O)OCC [diethyl carbonate] + CCCCCCC	3.93e-09 m2/s	3.96e-09 m2/s	3.99e-09 m2/s	4.02e-09 m2/s	4.08e-09 m2/s	4.14e-09 m2/s	4.19e-09 m2/s	4.27e-09 m2/s	4.32e-09 m2/s	4.4e-09 m2/s	4.47e-09 m2/s	4.54e-09 m2/s	4.62e-09 m2/s	4.7e-09 m2/s	4.8e-09 m2/s	4.88e-09 m2/s	4.97e-09 m2/s	5.07e-09 m2/s	5.15e-09 m2/s	5.25e-09 m2/s	binary diffusion coefficient (338.15 K): 5.35e-09 m2/s
